Assays:
[1] = target: T1, GMPPNP-bound KRAS G12C protein and cRAF RAS-binding domain (cRAF-RBD) (Homo sapiens, UniProt P01116, G12C); assay: Inhibitory activity on interaction between KRAS G12C and cRAF (Alpha technology); type: biochemical; settings: GMPPNP-bound KRAS G12C incubated with compound at 25° C. for 1 hour, then cRAF-RBD, Alpha signal; read-out: IC50
T1 construct: made in house; host or cells: E. coli
How it was run: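 GMPPNP-loaded His-KRAS G12C (aa 1-169) preincubated 1 h at 25 °C with compound (pH 7.5 Tris, 1 mM MgCl2, TCEP, Tween 20), then cRAF-RBD (aa 50-132) and Alpha reagents added for 1.5 h at RT. Inhibition scaled between DMSO (0%) and GDP-bound KRAS (100%); IC50 by curve fitting.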

MIA PaCa-2 cells = assay: Growth inhibition activity on KRAS-G12C mutant cell line (MIA PaCa-2); type: cell-based; settings: Homo sapiens, 72 h; MIA PaCa-2, 3-day culture, CellTiter-Glo 3D
Procedure: MIA PaCa-2 cells (given by Sumitomo Dainippon Pharma Co., Ltd.), which are a KRAS-G12C mutant human pancreas cancer cell line, were suspended in a 10% fetal bovine serum-containing RPMI1640 medium (manufactured by Fujifilm Wako Pure Chemical Corporation.). The cell suspension was seeded into each well of a 384-well U bottom microplate and cultured in an incubator containing 5% CO2 gas at 37° C. for 1 day. The compounds obtained in the “Preparation of Compounds” section were used as test compounds and were dissolved in DMSO, respectively, and each test compound was diluted with DMSO to give a concentration 500 times the final concentration. The resultant solution of the test compound in DMSO was diluted with the medium used for suspending cells and added to each well of the cell-culture plate to give a DMSO final concentration of 0.2%, followed by culture in an incubator containing 5% CO2 gas at 37° C. for another 3 days. The cell count after 3-day culture in the presence of the test compound was measured using CellTiter-Glo 3D Reagent (manufactured by Promega Corporation). All wells were added with CellTiter-Glo 3D Reagent and mixed for 10 minutes. 30 minutes after mixing, luminescence was measured by a plate reader. The growth inhibition rate was calculated from the following equation, and the concentration of the test compound at which 50% inhibition was achieved (IC50 (nM)) was determined. […] Growth Inhibition Rate (%)=(C−T)/(C)×100 • T: the emission intensity in a well into which a test compound was added. • C: the emission intensity in a well into which a test compound was not added.

[2] = target: Gppcp-bound recombinant K-Ras4B G12C mutant protein (amino acids 1-169, C51S/C80L/C118S) (Homo sapiens, UniProt P01116, C118S/C51S/C80L/G12C); assay: KRASG12C binding assay (LC-MS compound binding rate); settings: test compound final concentration 0.5 μM, 25° C., 1 hour
How it was run: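 Gppcp-bound K-Ras4B G12C (aa 1-169, C51S/C80L/C118S) at 50 nM in 1×TBS, 0.1 mM TCEP, 0.25 mM MgCl2, 50 μM Gppcp was incubated 1 hour at 25° C with compound at 0.5 μM final. Intact-protein LC-MS gave binding rate as single-adduct signal over total KRAS signal, graded A (≥80%) to E (<20%).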

Q: For `CO[C@H]1CC[C@H](NC/C=C/C(=O)Nc2ccc(C(=O)c3ccc4c(-c5c(Cl)cc6c(ncn6C)c5Cl)cccn34)cc2C#N)CC1` (single isomer, unassigned) [Example 62, (E)-N-(2-cyano-4-(8-(4,6-dichloro-1-methyl-1H-benzo[d]imidazol-5-yl)indolizine-3-carbonyl)phenyl)-4-(((1r,4r)-4-methoxycyclohexyl)amino)but-2-enamide], which IC50 [1] is on record?
A: 57 nM

Q: What about the IC50 (MIA PaCa-2 cells) of the same compound?
A: 43 nM

Q: What about the binding rate [2] of the same compound?
A: A (A binding rate of 80% or more is rated “A”)

Q: With `CO[C@H]1CC[C@H](NC/C=C/C(=O)Nc2ccc(C(=O)Nc3cccc(-c4cc5nc6n(c5cc4C)CCC6)n3)cc2C#N)CC1` [Example 3, 3-cyano-4-((E)-4-(((1r,4r)-4-methoxycyclohexyl)amino)but-2-enamido)-N-(6-(7-methyl-2,3-dihydro-1H-benzo[d]pyrrolo[1,2-a]imidazol-6-yl)pyridin-2-yl)benzamide] as the compound, how does the IC50 [1] read?
A: 50 nM

Q: What about the IC50 (MIA PaCa-2 cells) of the same compound?
A: 83 nM

Q: And the binding rate [2]?
A: B (a binding rate of 60% or more and less than 80% is rated “B”)

Q: How did the IC50 [1] turn out when `Cc1cc2c(cc1-c1cccn3c(C(=O)c4ccc(NC(=O)/C=C/CNC(C)(C)C)c(C#N)c4)ccc13)ncn2C` [Example 5, (E)-4-(tert-butylamino)-N-(2-cyano-4-(8-(1,6-dimethyl-1H-benzo[d]imidazol-5-yl)indolizine-3-carbonyl)phenyl)but-2-enamide] was run?
A: 29 nM

Q: What about the IC50 (MIA PaCa-2 cells) of the same compound?
A: 80 nM

Q: And the binding rate [2]?
A: A (A binding rate of 80% or more is rated “A”)

Q: Which results are given for `CO[C@H]1CC[C@H](NC/C=C/C(=O)Nc2ccc(C(=O)c3ccc4c(-c5cc6ncn(C)c6cc5C(F)(F)F)cccn34)cc2C#N)CC1` [Example 6, (E)-N-(2-cyano-4-(8-(1-methyl-6-(trifluoromethyl)-1H-benzo[d]imidazol-5-yl)indolizine-3-carbonyl)phenyl)-4-(((1r,4r)-4-methoxycyclohexyl)amino)but-2-enamide]?
A: IC50 [1]: 15 nM; IC50 (MIA PaCa-2 cells): 43 nM; binding rate [2]: A (A binding rate of 80% or more is rated “A”)

Q: With `CO[C@H]1CC[C@H](NC/C=C/C(=O)Nc2ccc(C(=O)c3ccc4c(-c5cc6nc(C)n(C)c6cc5C(F)(F)F)cccn34)cc2C#N)CC1` [Example 7, (E)-N-(2-cyano-4-(8-(1,2-dimethyl-6-(trifluoromethyl)-1H-benzo[d]imidazol-5-yl)indolizine-3-carbonyl)phenyl)-4-(((1r,4r)-4-methoxycyclohexyl)amino)but-2-enamide] as the compound, how does the IC50 [1] read?
A: 35 nM

Q: What about the IC50 (MIA PaCa-2 cells) of the same compound?
A: 49 nM

Q: What about the binding rate [2] of the same compound?
A: A (A binding rate of 80% or more is rated “A”)

Q: How did the IC50 [1] turn out when `CO[C@H]1CC[C@H](NC/C=C/C(=O)Nc2ccc(C(=O)c3c[nH]c4c(-c5cc6ncn(C)c6cc5C(F)(F)F)cccc34)cc2C#N)CC1` [Example 8, (E)-N-(2-cyano-4-(7-(1-methyl-6-(trifluoromethyl)-1H-benzo[d]imidazol-5-yl)-1H-indole-3-carbonyl)phenyl)-4-(((1r,4r)-4-methoxycyclohexyl)amino)but-2-enamide] was run?
A: 19 nM

Q: And the IC50 (MIA PaCa-2 cells)?
A: 52 nM

Q: And the binding rate [2]?
A: A (A binding rate of 80% or more is rated “A”)

Q: With `CO[C@H]1CC[C@H](NC/C=C/C(=O)Nc2ccc(C(=O)c3cc(Cl)c4c(-c5cc6ncn(C)c6cc5C)cccn34)cc2C#N)CC1` [Example 65, (E)-N-(4-(1-chloro-8-(1,6-dimethyl-1H-benzo[d]imidazol-5-yl)indolizine-3-carbonyl)-2-cyanophenyl)-4-(((1r,4r)-4-methoxycyclohexyl)amino)but-2-enamide] as the compound, how does the IC50 [1] read?
A: 140 nM

Q: What about the binding rate [2] of the same compound?
A: B (a binding rate of 60% or more and less than 80% is rated “B”)

Q: How did the IC50 [1] turn out when `CO[C@H]1CC[C@H](NC/C=C/C(=O)Nc2ccc(C(=O)c3ccc4c(-c5c(C)cc6c(ncn6C)c5-c5cncnc5)cccn34)cc2C#N)CC1` [Example 69, (E)-N-(2-cyano-4-(8-(1,6-dimethyl-4-(pyrimidin-5-yl)-1H-benzo[d]imidazol-5-yl)indolizine-3-carbonyl)phenyl)-4-(((1r,4r)-4-methoxycyclohexyl)amino)but-2-enamide] was run?
A: 260 nM

Q: And the binding rate [2]?
A: B (a binding rate of 60% or more and less than 80% is rated “B”)

Q: What does the source list for `CO[C@H]1CC[C@H](NC/C=C/C(=O)Nc2ccc(C(=O)c3ccc4c(-c5ccc6nn(C)cc6c5Cl)cccn34)cc2C#N)CC1` [Example 71, (E)-N-(4-(8-(4-chloro-2-methyl-2H-indazol-5-yl)indolizine-3-carbonyl)-2-cyanophenyl)-4-(((1r,4r)-4-methoxycyclohexyl)amino)but-2-enamide]?
A: IC50 [1]: 140 nM; binding rate [2]: A (A binding rate of 80% or more is rated “A”)

Q: With `CO[C@H]1CC[C@H](NC/C=C/C(=O)Nc2ccc(C(=O)c3ccc4c(-c5c(Cl)ncn5C(C)C)cccn34)cc2C#N)CC1` [Example 74, (E)-N-(4-(8-(4-chloro-1-isopropyl-1H-imidazol-5-yl)indolizine-3-carbonyl)-2-cyanophenyl)-4-(((1r,4r)-4-methoxycyclohexyl)amino)but-2-enamide] as the compound, how does the IC50 [1] read?
A: 170 nM

Q: What about the binding rate [2] of the same compound?
A: B (a binding rate of 60% or more and less than 80% is rated “B”)

Q: What does the source list for `CO[C@H]1CC[C@H](NC/C=C/C(=O)Nc2ccc(C(=O)c3ccc4c(-c5cc6nn(C)cc6cc5C)cccn34)cc2C#N)CC1` [Example 75, (E)-N-(2-cyano-4-(8-(2,5-dimethyl-2H-indazol-6-yl)indolizine-3-carbonyl)phenyl)-4-(((1r,4r)-4-methoxycyclohexyl)amino)but-2-enamide]?
A: IC50 [1]: 150 nM; binding rate [2]: A (A binding rate of 80% or more is rated “A”)

Q: How did the IC50 [1] turn out when `CO[C@H]1CC[C@H](NC/C=C/C(=O)Nc2ccc(C(=O)c3ccc4c(-c5cc6cn(C)nc6cc5C)cccn34)cc2C#N)CC1` [Example 76, (E)-N-(2-cyano-4-(8-(2,6-dimethyl-2H-indazol-5-yl)indolizine-3-carbonyl)phenyl)-4-(((1r,4r)-4-methoxycyclohexyl)amino)but-2-enamide] was run?
A: 130 nM

Q: What about the binding rate [2] of the same compound?
A: A (A binding rate of 80% or more is rated “A”)

Q: Which IC50 [1] does the source give for `Cn1cnc2cc(-c3cccn4c(C(=O)c5ccc(NC(=O)/C=C/CNC(C)(C)C)c(Cl)c5)ccc34)c(C(F)(F)F)cc21` [Example 77, (E)-4-(tert-butylamino)-N-(2-chloro-4-(8-(1-methyl-6-(trifluoromethyl)-1H-benzo[d]imidazol-5-yl)indolizine-3-carbonyl)phenyl)but-2-enamide] here?
A: 330 nM

Q: And the binding rate [2]?
A: C (a binding rate of 40% or more and less than 60% is rated “C”)

Q: How did the IC50 [1] turn out when `CO[C@H]1CC[C@H](NC/C=C/C(=O)Nc2ccc(C(=O)c3ccc4c(-c5ccc6nn(C)c(Cl)c6c5Cl)cccn34)cc2C#N)CC1` [Example 79, (E)-N-(2-cyano-4-(8-(3,4-dichloro-2-methyl-2H-indazol-5-yl)indolizine-3-carbonyl)phenyl)-4-(((1r,4r)-4-methoxycyclohexyl)amino)but-2-enamide] was run?
A: 440 nM

Q: And the binding rate [2]?
A: A (A binding rate of 80% or more is rated “A”)

Q: With `CO[C@H]1CC[C@H](NC/C=C/C(=O)Nc2ccc(C(=O)c3ccc4c(-c5c(C)cc6c(ncn6C)c5-c5cccnc5)cccn34)cc2C#N)CC1` [Example 82, (E)-N-(2-cyano-4-(8-(1,6-dimethyl-4-(pyridin-3-yl)-1H-benzo[d]imidazol-5-yl)indolizine-3-carbonyl)phenyl)-4-(((1r,4r)-4-methoxycyclohexyl)amino)but-2-enamide] as the compound, how does the IC50 [1] read?
A: 150 nM

Q: What about the binding rate [2] of the same compound?
A: A (A binding rate of 80% or more is rated “A”)

Q: For `CO[C@H]1CC[C@H](NC/C=C/C(=O)Nc2ccc(C(=O)c3c[nH]c4c(-c5cc6ncn(C)c6cc5C(F)(F)F)cccc34)c(F)c2)CC1` [Example 83, (E)-N-(3-fluoro-4-(7-(1-methyl-6-(trifluoromethyl)-1H-benzo[d]imidazol-5-yl)-1H-indole-3-carbonyl)phenyl)-4-(((1r, 4r)-4-methoxycyclohexyl)amino)but-2-enamide], which IC50 [1] is on record?
A: 440 nM

Q: What about the binding rate [2] of the same compound?
A: A (A binding rate of 80% or more is rated “A”)
